{
  "source": "patent US20250302866A1",
  "about": "“POLYMER AGENTS FOR CARDIOPULMONARY RESUSCITATION” (VIRGINIA COMMONWEALTH UNIVERSITY, priority 2019, published 2025)",
  "key": {"[1]": {"test_system": "patients with out-of-hospital cardiac arrest", "details": "prehospital epinephrine use; cited from earlier work"}, "[2]": {"test_system": "rat model of cardiac arrest and cardiopulmonary resuscitation", "assay": "Duration of survival after resuscitation", "format": "in vivo, Sprague-Dawley rats", "details": "6 resuscitated rats in each group"}, "patients with SCA": {"test_system": "patients with SCA", "details": "cited from earlier work"}, "[3]": {"test_system": "rat model of cardiac arrest and cardiopulmonary resuscitation", "assay": "Coronary perfusion pressure, defibrillations and arrhythmia in a rat model of cardiac arrest and CPR", "format": "in vivo, Sprague-Dawley rats", "details": "mean±SD", "experimental": "(§1) Male Sprague-Dawley rats weighing 450-550 g were utilized in this study. After induction of anesthesia with inhalation of CO2 for about 30 seconds, the animals were anesthetized by intraperitoneal injection of pentobarbital (45 mg/kg). Additional doses (10 mg/kg) were administered when required to maintain anesthesia. After no response to stimuli, the animals were shaved. The trachea was orally intubated with a 14-G cannula mounted on a blunt needle (Abbocath-T; Abbott Hospital Products Division, North Chicago, IL, USA) with a 145-degree angled tip. End-tidal CO2 was continuously monitored with a side-stream infrared CO2 analyzer (Capstar-100 Carbon Dioxide Analyzer; CWE, Ardmore, PA) interposed between the tracheal cannula and the ventilator. A conventional lead II EKG was continuously monitored. Through the left external jugular vein, a PE-50 catheter (Becton Dickinson, Sparks, MD, USA) was advanced into the right atrium for measurement of right atrial pressures. A 3-F catheter (Model C-PMS-301J; Cook Critical Care, Bloomington, IN, USA) was advanced through the right external jugular vein into the right ventricle. For blood pressure measurements within the descending aorta and PEG-20k administration, PE-50 catheters were advanced into the descending aorta from the left femoral artery and the right femoral artery respectively. […]"}, "[4]": {"test_system": "rat model of cardiac arrest and cardiopulmonary resuscitation", "assay": "Buccal microcirculation (MFI, PVD) by side-stream dark-field imaging", "format": "in vivo, Sprague-Dawley rats", "details": "1, 3, and 5 hours after ROSC; PEG-20k vs other 3 groups; p<0.05; FIG. 3", "experimental": "as §1"}, "[5]": {"test_system": "rat model of cardiac arrest and cardiopulmonary resuscitation", "assay": "Post-resuscitation myocardial function by echocardiography (CO, EF, MPI)", "format": "in vivo, Sprague-Dawley rats", "details": "2, 4, and 6 hours after ROSC; PEG-20k vs other 3 groups, epinephrine vs saline placebo and saline-A; p<0.05; FIG. 2", "experimental": "as §1"}},
  "data": [
    {"smiles": "CNC[C@H](O)c1ccc(O)c(O)c1", "note": "[Epinephrine]", "values": [
      {"measurement": "Chance of ROSC before hospital arrival", "setting": "[1]", "result": "increased chance of ROSC"},
      {"measurement": "Chance of survival and good functional outcomes 1 month after the event", "setting": "[1]", "result": "decreased chance of survival and good functional outcomes"},
      {"measurement": "Rats survived more than 24 hours", "setting": "[2]", "result": "one"},
      {"measurement": "Rate of ROSC vs placebo", "setting": "patients with SCA", "result": "significantly higher rate of ROSC than placebo"},
      {"measurement": "Rate of survival with a favorable neurologic outcome", "setting": "patients with SCA; vs placebo group", "result": "as low as the rate in the placebo group"},
      {"measurement": "Arrhythmia duration", "setting": "[3]; after resuscitation", "result": "14.00 ± 5.35"},
      {"measurement": "Number of defibrillations", "setting": "[3]; defibrillations required for conversion to viable rhythm and ROSC, drug infused for 3 minutes after 4 minutes of precordial compression", "result": "5.50 ± 2.88"},
      {"measurement": "Buccal microcirculation PVD and MFI values", "setting": "[4]", "result": "significantly decreased"},
      {"measurement": "PR myocardial function (CO, EF, MPI)", "setting": "[5]", "result": "increased the severity of PR myocardial dysfunction"}
    ]}
  ]
}
